Results taken from publication PMC8795149, “Characterization of a novel non-steroidal glucocorticoid receptor agonist optimized for topical treatment” (Scientific Reports, 2022).

What was measured:
[1] = Hepatocyte stability (rat); format: in vitro ADME; settings: predicted hepatic clearance, well stirred model
Method: (§1) Compounds (1.0 µM) were incubated in duplicates with rat, dog, minipig or human hepatocytes (1.0 million cells/mL) in phosphate buffer, in 96-well plates for 120 min (37 °C). Reactions were stopped by addition of cold acetonitrile, at 0, 10, 30, 60, and 120 min, and dispensed into cold acetonitrile to stop the reactions. Plates were centrifuged for 30 min and samples were analysed using liquid chromatography coupled to a time-of-flight mass spectrometer. Compound depletion over time was used to estimate the elimination rate constant, from which the apparent intrinsic clearance (CLapp), and half-life (t½), were calculated.

[2] = Hepatocyte stability (dog); format: in vitro ADME; settings: predicted hepatic clearance, well stirred model
Method: as §1

[3] = target: T1, recombinant human full-length GR (Homo sapiens, UniProt P04150); experiment: GR binding assay (fluorescence polarization); settings: Fluormone GS1
T1 construct: 4 nM recombinant human full-length GR (Thermo Fisher); purchased Thermo Fisher
T1 sequence (P04150 1-777): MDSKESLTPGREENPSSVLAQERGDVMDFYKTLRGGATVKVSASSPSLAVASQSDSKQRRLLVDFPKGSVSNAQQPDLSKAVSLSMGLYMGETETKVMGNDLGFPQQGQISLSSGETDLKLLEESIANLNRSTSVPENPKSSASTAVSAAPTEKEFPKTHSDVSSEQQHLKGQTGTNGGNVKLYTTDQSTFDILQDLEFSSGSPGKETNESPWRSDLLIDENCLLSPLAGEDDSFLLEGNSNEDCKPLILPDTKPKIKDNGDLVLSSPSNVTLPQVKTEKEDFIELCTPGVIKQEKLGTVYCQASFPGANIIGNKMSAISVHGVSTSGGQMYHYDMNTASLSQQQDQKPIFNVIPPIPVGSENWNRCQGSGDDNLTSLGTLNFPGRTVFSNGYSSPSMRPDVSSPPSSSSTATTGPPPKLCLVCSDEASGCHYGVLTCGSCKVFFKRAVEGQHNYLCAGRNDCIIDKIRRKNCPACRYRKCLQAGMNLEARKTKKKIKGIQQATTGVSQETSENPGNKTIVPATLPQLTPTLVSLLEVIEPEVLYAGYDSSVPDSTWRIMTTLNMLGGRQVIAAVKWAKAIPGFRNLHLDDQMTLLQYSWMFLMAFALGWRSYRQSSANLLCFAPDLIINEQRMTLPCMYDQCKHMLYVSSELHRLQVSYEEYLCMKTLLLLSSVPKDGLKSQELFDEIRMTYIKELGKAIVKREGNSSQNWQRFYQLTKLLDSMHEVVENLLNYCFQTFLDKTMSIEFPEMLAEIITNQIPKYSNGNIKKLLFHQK
Method: Binding of GR agonists to human GR was evaluated in a fluorescence polarization assay. 2.5 nM Fluormone GS1 (Thermo Fisher) and 4 nM recombinant human full-length GR (Thermo Fisher) were incubated in the presence of individual test and control compounds. Changes in polarization values were used to determine the relative affinity of test compounds for the GR.

[4] = tested on: PPAR-alpha, LXR-beta, RAR-alpha, RXR-alpha, ER-alpha, PR, AR, ER-beta and TR; experiment: Selectivity screening on nuclear receptors, radioligand binding (CEREP); design: species or system human; settings: 10µM; greater than 25% displacement considered significant
Method: Selectivity screening on nuclear receptors – Studies were performed at CEREP using their proprietary assays for human PPARalpha, LXRbeta, RARalpha, RXRalpha, ERalpha, ERbeta, progesterone receptor, androgen receptor and thyroid hormone receptor employing specific, radiolabeled agonist ligands. Interactions leading to greater than 25% displacement of the radiolabeled agonist ligand were considered significant. Concentrations of LEO 134310 and LEO 134998 were 10µM.

[5] = Compound concentration in dermis, human skin explants; format: in vitro ADME; settings: 24 h, propylene carbonate
Method: NativeSkin models (NS002) were purchased from Genoskin, France. Human skin samples from abdominal reduction surgery were obtained by Genoskin from donors upon written informed consent. Full ethical approval for the study protocol was obtained from the French ethical research committee (Comité de Protection des Personnes), and authorization was given by the French Ministry of Research. The study was conducted according to the Declaration of Helsinki. 8 mm punch biopsies were excised and embedded in a fibrin-based matrix in transwells and a silicone ring was firmly attached to the surface covering the outer edge of the skin biopsy to prevent lateral diffusion of topically applied formulations. […]
The concentrations of the compounds in dermis were determined from skin biopsies from the human skin explants. […] After homogenization, the samples were diluted, centrifuged and precipitated with acetonitrile containing internal standard (IS), and the compounds were thereafter quantified by means of liquid chromatography-tandem mass spectrometry (LC-MS/MS) using an AB Sciex 5500 or 6500 QTRAP. Calibration curves were prepared by spiking the analytes in blank homogenate, and a generic IS were used in quantification. The dermis micro molar concentrations were calculated assuming 1 gram of skin tissue equal to 1 mL.

HPA axis = tested on: HPA axis; design: method as in PMID 3553247; settings: topical; cited from earlier work

Row | SMILES | In vitro (hepatocytes) CLH [1] | In vitro (hepatocytes) CLH [2] | EC50 [3] [nM] | Interaction with nine nuclear hormone receptors in specific binding assays [4] | Higher dose needed to achieve similar dermis concentrations compared to BMV [5] [fold] | Higher dose needed to achieve similar dermis concentrations compared to CP [5] [fold] | Effect on morning plasma cortisol (HPA axis)
1 | C[C@H](NC(=O)[C@H]1CCCO1)[C@H](Oc1ccc(C(=O)O[C@H]2CCCN(C(=O)[C@H]3COC(=O)C3)C2)cc1)c1ccc(C2CC2)cc1 [LEO 134310] | 57 (n = 1) mL/min/kg | > 30 (n = 1) mL/min/kg | 14 | no significant interaction | 3 | 7 | –
2 | CCC(=O)O[C@]1(C(=O)CCl)[C@@H](C)C[C@H]2[C@@H]3CCC4=CC(=O)C=C[C@]4(C)[C@@]3(F)[C@@H](O)C[C@@]21C [CP, Clobetasol Propionate] | – | – | – | – | – | – | reduce morning plasma cortisol significantly
